# Assay results reported in patent publication US20150315211A1, “SMALL MOLECULES FOR THE MODULATION OF MCL-1 AND METHODS OF MODULATING CELL DEATH, CELL DIVISION, CELL DIFFERENTIATION AND METHODS OF TREATING DISORDERS” (priority 2010, published 2015).
# Columns and labels:
# MCL-1ΔNΔC [1] = assay: High-throughput competitive FP binding screen, FITC-MCL-1 SAHB/MCL-1ΔNΔC interaction; details: selectivity for MCL-1ΔNΔC over BCL-XLΔC targeting (BCL-XL % Bound minus MCL-1 % Bound)
# BCL-XLΔC = BCL-XLΔC (Homo sapiens, UniProt Q07817); assay: High-throughput competitive FP binding screen, FITC-BAD BH3/BCL-XLΔC interaction; details: FITC-BAD BH3/BCL-XLΔC interaction pair, competitive FP screen
# BCL-XLΔC, sequence (Q07817 1-212 limits assumed, stated change not applied): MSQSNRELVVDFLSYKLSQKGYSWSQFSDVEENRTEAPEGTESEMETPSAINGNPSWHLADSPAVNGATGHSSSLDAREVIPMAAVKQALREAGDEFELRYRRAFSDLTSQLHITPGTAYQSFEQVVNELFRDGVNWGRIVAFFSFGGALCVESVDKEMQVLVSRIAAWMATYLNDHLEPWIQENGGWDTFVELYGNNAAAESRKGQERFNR
# MCL-1ΔNΔC [2] = molecular target: MCL-1ΔNΔC (Homo sapiens, UniProt Q07820); assay: High-throughput competitive FP binding screen, FITC-MCL-1 SAHB/MCL-1ΔNΔC interaction; parameters: the C-terminal alpha-helix was deleted from each of these constructs; GST (N, cleaved yes); made in house; details: FITC-MCL-1 SAHB/MCL-1ΔNΔC interaction pair, competitive FP screen
# MCL-1ΔNΔC (Homo sapiens, UniProt Q07820), sequence (Q07820 172-320 limits assumed, stated change not applied): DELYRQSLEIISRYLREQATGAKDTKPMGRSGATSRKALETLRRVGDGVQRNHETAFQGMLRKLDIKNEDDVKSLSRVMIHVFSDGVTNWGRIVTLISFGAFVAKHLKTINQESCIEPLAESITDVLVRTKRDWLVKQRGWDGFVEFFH
Structure (SMILES),Spec Values (MCL-1ΔNΔC [1]),BCL-XL % Bound (BCL-XLΔC),MCL-1% Bound (MCL-1ΔNΔC [2])
COc1cccc(OCc2nnc(SCc3ccccc3)n2C)c1,50.95,97.51%,46.56%
CCOC(=O)c1c(C)oc2c1c1c(c3ccccc32)OCN(C2CC(C)(C)NC(C)(C)C2)C1,50.9,85%,34.11%
CC1CCC(C(C)C)C(OC(=O)COC(=O)c2ccc(O)cc2)C1 (stereo not drawn),50.73,106.5%,55.74%
Cc1cccc(CSc2ccc(-c3ccco3)nn2)c1,50.6,95.36%,44.76%
CSc1sc(C(=O)/C=C/N(C)C)c(-c2cccs2)c1C#N,50.48,30.42%,−20.06%
CCOc1cc(/C=C(/C#N)c2cccc(Br)c2)ccc1OCc1ccc(C(=O)O)o1,50.28,85.88%,35.61%
Cc1nn(C)c2nc(NNC(=O)c3cccc(C(F)(F)F)c3)ccc12,50.23,107.3%,57.07%
CCOC(=O)c1ccc2nc(NC(=O)CSc3nc(C)cc(=O)[nH]3)sc2c1,49.78,106.3%,56.55%
CC1=C(C)C/S(=N\S(=O)(=O)c2ccc(Cl)cc2)N(S(=O)(=O)c2ccc(Cl)cc2)C1 (stereo not drawn),49.76,100.2%,50.42%
O=c1ccc(-c2ccco2)nn1Cc1ccc(Cl)c(Cl)c1,49.7,96.49%,46.79%
CN1CCN(C(c2ccccn2)c2c(-c3ccccc3)n(O)c3ccccc23)CC1 (stereo not drawn),49.28,99.83%,50.55%
Cc1c(Cl)cccc1N1C(=O)CC(N2CCCc3ccccc32)C1=O (stereo not drawn),48.92,84.74%,35.82%
CC(C)(C)c1ccc(-c2nnc(S)[nH]2)cc1,48.83,96.8%,47.97%
Cc1oc(-c2cccc(C(F)(F)F)c2)cc1C(=O)O,48.68,81.9%,33.22%
COc1cc(C(c2nnnn2C2CCCCC2)N2CCc3ccccc3C2)ccc1O (stereo not drawn),48.33,105.8%,57.44%
CNc1sc(C(=O)c2cccs2)c(N)c1-c1nc2ccccc2s1,48.22,92.47%,44.25%
CCCCn1c2ccccc2c2nnc(S)nc21,48.16,92.39%,44.24%
CC1=CC(=O)C(CCCC2=CC(=O)C=CC2=O)=CC1=O,48.07,92.47%,44.41%
c1ccc(-c2ccc3c(c2)c2c4n3CCN=C4CCC2)cc1,47.9,68.24%,20.34%
O=C(NCc1ccco1)c1ccc(-c2cc3ccccc3oc2=O)cc1,47.79,115.7%,67.95%
NNCc1c(Cl)cccc1Cl,47.77,103.5%,55.76%
COC(=O)c1ccc(C(c2cc3c(cc2O)OCO3)N2CCN(c3ccccc3)CC2)cc1 (stereo not drawn),47.71,96.46%,48.75%
CCOC(=O)c1c(N2C(=O)C3C4C=CC(O4)C3C2=O)sc2c1CCCC2 (stereo not drawn),47.7,95.97%,48.27%

Structure (SMILES),Spec Values (MCL-1ΔNΔC [1]),BCL-XL % Bound (BCL-XLΔC),MCL-1% Bound (MCL-1ΔNΔC [2])
CC1=NN(c2ccccc2)C(=O)/C1=C/c1ccc(OC(=O)c2ccco2)c(Cl)c1,47.67,96.2%,48.53%
CC1(C)CC(=O)C(=Cc2cn(-c3ccccc3)nc2-c2cccs2)C(=O)C1,47.55,90.62%,43.07%
CCOc1cccc(CNc2ccc(N3CCCC3)cc2)c1,47.31,82.24%,34.93%
COC(=O)c1c(NC(=O)C2CC2)sc(C)c1C,47.29,101%,53.71%
Oc1ccc(/C=N/c2cccc(C(F)(F)F)c2)c(O)c1,47.26,75.68%,28.42%
COC(=O)C1C(=O)NC(S)=C(C#N)C1c1ccccc1Cl (stereo not drawn),47.12,94.15%,47.02%
Cn1c(S)nnc1CNc1cccc(C(F)(F)F)c1,47.12,102.2%,55.09%
C=CCN1C(=O)/C(=C2/C(=O)Nc3ccccc32)c2ccccc21,47.06,77.55%,30.48%
O=C(CSc1nnc(C2CC2)n1Cc1ccco1)c1cccc(Cl)c1,47.06,98.2%,51.14%
O=S(=O)(NNc1cnc2ccccc2n1)c1ccccc1C(F)(F)F,47.02,112.4%,65.42%
CC1(C)CC(=O)C2=C(C1)Nc1ccc3ncccc3c1C2c1ccc(O)c(O)c1 (stereo not drawn),47.01,95.33%,48.32%
N#C/C(=C/c1ccc(-c2ccc(C(=O)O)cc2)o1)c1ccc(Cl)cc1,46.64,82.47%,35.83%
O=C(NC(=S)NCc1ccccc1)C1CCCC1,46.46,92.1%,45.64%
CNC(=S)N/N=C1\CCOc2ccc3ccccc3c21,46.39,96.07%,49.68%
CC1CCc2c(sc3ncn4c(S)nnc4c23)C1 (stereo not drawn),46.37,95.03%,48.65%
Oc1ccc(SSc2ccc(O)cc2)cc1,46.28,104.4%,58.12%
O=C(O)/C(S)=C\C=C\c1ccccc1,46.13,90.49%,44.36%
CC1(C)c2ssc(=S)c2-c2ccccc2N1C(=O)CSC#N,46.04,93.06%,47.02%
CN1CCC(N(C)Cc2cc(C(C)(C)C)c(O)c(C(C)(C)C)c2)CC1,45.97,109.3%,63.36%
O=C1c2ccccc2-c2onc3ccc(Oc4c(F)c(F)c(F)c(F)c4F)c1c23,45.97,86.73%,40.76%
O=C1c2ccccc2CCC1Sc1nnc(-c2ccncc2)o1 (stereo not drawn),45.54,88.38%,42.84%
N=C1NC(=O)/C(=C2/C(=O)Nc3ccc(Br)cc32)S1,45.52,95.58%,50.06%
CCCCCSc1nnc(N/C=N/O)s1,45.49,98.25%,52.76%
